Reference: patent US20220111081A1, “COMPOSITION FOR TARGETING MEDULLARY THYROID CANCER” (University-Industry Foundation, Yonsei University, priority 2019, published 2022)

Tests used:
OR51E2 [1] = target: T1, OR51E2 (Homo sapiens, UniProt Q9H255); experiment: ^11C-acetate positron emission and CPM in thyroid cancer cell lines; format: cell-based; design: OR51E1 (olfactory receptor 51E1) and OR51E2 were highly expressed in MZ-CRC1 and TT cell lines as medullary thyroid cancer cell lines; endogenous in cells; host or cells: MZ-CRC-1 and TT medullary thyroid cancer cell lines
T1 sequence (Q9H255 1-320): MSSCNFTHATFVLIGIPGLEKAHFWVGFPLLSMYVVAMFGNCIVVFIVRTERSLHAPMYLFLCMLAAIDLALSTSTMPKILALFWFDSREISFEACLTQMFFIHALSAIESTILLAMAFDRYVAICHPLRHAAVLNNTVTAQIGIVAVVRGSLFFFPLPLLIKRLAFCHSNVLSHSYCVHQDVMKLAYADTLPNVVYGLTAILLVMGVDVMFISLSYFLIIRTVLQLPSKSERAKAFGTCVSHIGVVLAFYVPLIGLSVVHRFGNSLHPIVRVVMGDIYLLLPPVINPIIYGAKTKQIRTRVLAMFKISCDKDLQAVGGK
Experimental: Thyroid cancer cell lines having different origins were treated with ^11C-acetate labeled with a radioactive isotope (20 μCi), and the degree of positron emission was identified. A control group was treated with F-18-fluorodeoxyglucose as the most commonly used radiopharmaceutical.

MZ-CRC-1 cell line [2] = experiment: positron emission tomography (PET) of nude mice with MZ-CRC-1 tumor; format: in vivo, mouse; settings: nude mice (BALB/c) with tumor from MZ-CRC-1 cell line (FIG. 11A)
Experimental: (§1) Nude mice (BALB/c) were administered with the MZ-CRC-1 cell line (4×10^6 cells/mouse) to induce tumorigenesis, and administered with ^11C-acetate, followed by performing positron emission tomography (PET).

OR51E2 [3] = target: T1, OR51E2; experiment: acetate binding competition experiment (CPM); design: OR51E1 (olfactory receptor 51E1) and OR51E2 were highly expressed in MZ-CRC1 and TT cell lines as medullary thyroid cancer cell lines; endogenous in cells; host or cells: MZ-CRC-1 and TT medullary thyroid cancer cell lines; settings: MZ-CRC-1 and TT cell lines
Experimental: MZ-CRC-1 and TT cell lines as medullary thyroid cancer cell lines were treated with 100 μM cold acetate (acetate labeled with no radioactive isotope), and then treated with ^11C-acetate at concentrations of 2, 5, 10, 20, 40 and 60 μCi to measure CPM. In addition, MZ-CRC-1 and TT cell lines were treated with ^11C-acetate (20 μCi), and then treated with cold acetate at concentrations of 0, 20, 40, 80, 150 and 300 μM to measure CPM.

MZ-CRC-1 cell line [4] = experiment: serum calcitonin in nude mice with MZ-CRC-1 tumor after ^11C-acetate; format: in vivo, mouse; settings: nude mice (BALB/c) with tumor from MZ-CRC-1 cell line (FIG. 11B)
Experimental: as §1

OR51E2 [5] = experiment: CPM after ^11C-acetate treatment of OR51E2 knockout mice; format: in vivo, mouse; settings: OR51E2 knockout mice compared with wild-type mice (FIG. 8D)
OR51E2 [6] = target: T1, OR51E2; settings: MZ-CRC-1 cell line, 100 μM acetate, stained after 1, 5 and 30 minutes (FIG. 10)
Experimental: To identify whether the binding of acetate and OR51E2 can be utilized in the diagnosis of thyroid cancer, the MZ-CRC-1 cell line (parafollicular C-cells) was treated with 100 μM of acetate, and the cells were stained after 1, 5 and 30 minutes to identify OR51E2.

OR51E2 [7] = target: T1, OR51E2
Experimental: (§2) Thereafter, the parafollicular C-cells were treated with acetate at each concentration and cultured, and then using a bromodeoxyuridine (BrdU) cell proliferation assay kit (Millipore, Mass.), the degree of BrdU binding was analyzed according to the manufacturer's protocol.

parafollicular C-cells = parafollicular C-cells treated with acetate at each concentration (FIG. 5A)
Experimental: as §2

p42/44 MAPK = tested on: p42/44 MAPK
Experimental: (§3) Since OR51E1 and OR51E2 were highly expressed in the medullary thyroid cancer cell lines, MZ-CRC1 and TT cell lines as parafollicular C-cell lines were treated with acetate, nonanoic acid, propionate and azelaic acid as olfactory receptor ligands by 100 μM each to identify their influences.

[8] = tested on: CREB (cAMP response element-binding protein); settings: parafollicular C-cell line, acetate concentration series (FIG. 4B)
Experimental: as §3

intracellular cAMP = settings: parafollicular C-cell line, acetate treatment (FIG. 4C)
Experimental: as §3

OR51E2 [9] = settings: OR51E2 knockout mice, 30 minutes after injecting 100 μl of 99% acetate (FIG. 7B)
Experimental: (§4) C57/BL6 mice in which a green fluorescent protein (GFP) was inserted into the OR51E2 gene loci were purchased (Jackson Laboratory, USA) and reared under sterile conditions. Through a week of acclimatization, the mice were each sacrificed 30 minutes after injecting 100 μl of 99% acetate thereto to separate the thyroid gland and serum. The thyroid gland was stained with calcitonin and a GFP antibody, respectively, and the calcitonin concentration was measured in the separated serum.

OR51E2 [10] = target: OR51E2 (Mus musculus, UniProt Q8VBV9); settings: wild-type mice, 30 minutes after injecting 100 μl of 99% acetate (FIG. 7B)
Experimental: as §4

OR51E2 (Mus musculus, UniProt Q8VBV9), sequence (Q8VBV9 whole entry): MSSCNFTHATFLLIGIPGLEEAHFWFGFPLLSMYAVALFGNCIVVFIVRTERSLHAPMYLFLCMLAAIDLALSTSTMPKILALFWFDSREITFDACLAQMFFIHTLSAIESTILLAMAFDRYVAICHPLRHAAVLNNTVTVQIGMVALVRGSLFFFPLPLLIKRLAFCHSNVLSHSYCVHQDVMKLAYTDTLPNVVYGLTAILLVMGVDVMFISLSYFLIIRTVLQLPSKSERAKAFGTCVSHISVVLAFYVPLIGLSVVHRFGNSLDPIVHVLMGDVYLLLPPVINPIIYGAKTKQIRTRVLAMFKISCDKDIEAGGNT

SMILES | level of positron emission (OR51E2 [1]; medullary thyroid cancer cell line versus other thyroid cancer cell lines, 20 μCi (FIG. 8A)) | CPM (counter per minute) (OR51E2 [1]; medullary thyroid cancer cell line versus other thyroid cancer cell lines, 20 μCi (FIG. 8B)) | CPM (OR51E2 [1]; medullary thyroid cancer cell line with OR51E2 expression suppressed by siOR51E2 (FIG. 8C)) | PET tracer accumulation (MZ-CRC-1 cell line [2]) | CPM (OR51E2 [3]; first 100 μM cold acetate, then ^11C-acetate 2, 5, 10, 20, 40 and 60 μCi (FIG. 9A, 9B)) | calcitonin concentration in the serum (MZ-CRC-1 cell line [4]) | CPM (OR51E2 [5]) | location of OR51E2 (staining) (OR51E2 [6]) | release of calcitonin (OR51E2 [7]; expression of OR51E2 suppressed with siRNA, then acetate treatment (FIG. 5C)) | intracellular expression level of calcitonin (OR51E2 [7]; parafollicular C-cell line, acetate treatment (FIG. 5B)) | cell proliferation (BrdU binding level) (parafollicular C-cells) | level of phosphorylation of p42/44 MAPK (p42/44 MAPK; MZ-CRC1 and TT cell lines, ligands 100 μM each (FIG. 4A)) | phosphorylation level of p42/44 MAPK versus concentration (p42/44 MAPK; parafollicular C-cell line, acetate concentration series (FIG. 4B)) | phosphorylation level of CREB versus concentration [8] | level of intracellular cAMP (intracellular cAMP) | level of calcitonin in the serum (OR51E2 [9]) | level of calcitonin in the serum (OR51E2 [10]) | CPM (OR51E2 [3]; first ^11C-acetate 20 μCi, then cold acetate 0, 20, 40, 80, 150 and 300 μM (FIG. 9C, 9D))
C[11C](=O)O [^11C-acetate] | high | highest | did not increase | accumulated in the tumor-producing sites | increased as the treatment concentration increased | increased | did not increase | – | – | – | – | – | – | – | – | – | – | –
CC(=O)O [acetate] | – | – | – | – | – | – | – | migrated into the cells | not increased | increased | increased | increased | increased in proportion to the acetate treatment concentration | increased in proportion to the acetate treatment concentration | increased | maintained almost constant | increased | decreased as the treatment concentration increased
